Measurements as given in paper PMC7504216 (Molecules, 2020).
Where two headings read alike, the source gives them in different places.

What was measured:
BChE = conditions: cited from earlier work
MAO-B = system: MAO-B; set-up: method as in PMID 28634060; conditions: cited from earlier work
BChE from equine serum [1] = molecular target: T1, BChE from equine serum (Equus caballus, UniProt P81908); assay: BChE inhibition assay (Ellman, BTCI) and kinetics; assay type: biochemical; conditions: for remaining activity at 10 µM: read-out: Residual Activity at 10 µM (%) BChE
T1 construct: BChE from equine serum; purchased Sigma-Aldrich; host or cells: equine serum
T1 sequence (P81908 whole entry): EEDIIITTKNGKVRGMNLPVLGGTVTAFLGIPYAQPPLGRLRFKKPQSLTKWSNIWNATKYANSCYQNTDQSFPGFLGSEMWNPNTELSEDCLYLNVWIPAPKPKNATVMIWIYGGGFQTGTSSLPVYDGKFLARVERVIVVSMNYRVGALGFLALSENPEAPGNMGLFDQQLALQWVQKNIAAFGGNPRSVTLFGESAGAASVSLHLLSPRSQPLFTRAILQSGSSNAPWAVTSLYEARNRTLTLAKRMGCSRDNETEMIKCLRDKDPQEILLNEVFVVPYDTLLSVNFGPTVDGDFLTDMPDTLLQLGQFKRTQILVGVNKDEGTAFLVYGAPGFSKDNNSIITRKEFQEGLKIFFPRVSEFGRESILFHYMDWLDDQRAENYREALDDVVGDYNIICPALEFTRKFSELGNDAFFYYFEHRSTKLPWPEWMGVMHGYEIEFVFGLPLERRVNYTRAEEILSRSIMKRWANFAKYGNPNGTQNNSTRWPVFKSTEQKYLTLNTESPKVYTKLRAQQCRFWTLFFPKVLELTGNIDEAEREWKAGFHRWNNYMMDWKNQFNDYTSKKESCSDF

[2] = molecular target: T2, AChE from Electrophorus electricus (Electrophorus electricus, UniProt O42275); assay: AChE inhibition assay (Ellman, ATCI); assay type: biochemical; conditions: for remaining activity at 10 µM: read-out: Residual Activity at 10 µM (%) AChE
T2 construct: purchased Sigma-Aldrich
T2 sequence (O42275 24-633): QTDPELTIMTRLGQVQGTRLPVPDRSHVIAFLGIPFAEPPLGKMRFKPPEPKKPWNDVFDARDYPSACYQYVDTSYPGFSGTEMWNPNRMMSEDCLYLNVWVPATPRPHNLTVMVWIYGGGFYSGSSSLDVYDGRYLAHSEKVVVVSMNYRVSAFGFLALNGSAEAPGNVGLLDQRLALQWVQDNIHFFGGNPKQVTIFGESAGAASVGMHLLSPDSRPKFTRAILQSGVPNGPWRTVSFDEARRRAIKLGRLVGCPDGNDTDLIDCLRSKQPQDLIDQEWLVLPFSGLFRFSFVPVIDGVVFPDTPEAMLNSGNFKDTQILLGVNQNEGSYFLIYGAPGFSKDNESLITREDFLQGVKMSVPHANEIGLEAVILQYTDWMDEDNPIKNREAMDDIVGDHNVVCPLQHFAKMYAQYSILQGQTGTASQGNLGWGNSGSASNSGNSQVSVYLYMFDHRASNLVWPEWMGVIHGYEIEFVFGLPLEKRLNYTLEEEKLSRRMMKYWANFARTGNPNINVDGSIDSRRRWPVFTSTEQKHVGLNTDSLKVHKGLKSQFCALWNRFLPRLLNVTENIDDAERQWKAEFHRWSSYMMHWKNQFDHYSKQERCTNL

recombinant human MAO-A = molecular target: T3, recombinant human MAO-A (Homo sapiens, UniProt P21397); assay: biochemical; assay type: biochemical; conditions: for remaining activity at 10 µM: read-out: Residual Activity at 10 µM (%) MAO-A
T3 construct: purchased Sigma-Aldrich
T3 sequence (P21397 1-527): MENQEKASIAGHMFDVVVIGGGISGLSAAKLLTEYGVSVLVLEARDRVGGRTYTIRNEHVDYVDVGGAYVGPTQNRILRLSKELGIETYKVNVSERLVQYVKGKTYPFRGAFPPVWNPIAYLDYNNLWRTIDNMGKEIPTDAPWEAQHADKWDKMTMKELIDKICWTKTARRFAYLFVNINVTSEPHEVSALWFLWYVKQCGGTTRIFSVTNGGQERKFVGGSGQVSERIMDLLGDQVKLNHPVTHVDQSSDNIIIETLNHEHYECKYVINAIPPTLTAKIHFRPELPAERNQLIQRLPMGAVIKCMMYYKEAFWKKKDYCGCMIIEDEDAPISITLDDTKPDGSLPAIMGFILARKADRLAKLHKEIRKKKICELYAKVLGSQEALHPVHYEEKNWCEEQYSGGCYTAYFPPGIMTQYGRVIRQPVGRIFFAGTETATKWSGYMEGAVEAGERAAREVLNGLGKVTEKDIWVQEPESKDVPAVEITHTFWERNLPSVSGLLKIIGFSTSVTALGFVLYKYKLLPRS

recombinant human MAO-B = molecular target: T4, recombinant human MAO-B (Homo sapiens, UniProt P27338); assay: biochemical; assay type: biochemical; conditions: for remaining activity at 10 µM: read-out: Residual Activity at 10 µM (%) MAO-B
T4 construct: purchased Sigma-Aldrich
T4 sequence (P27338 1-520): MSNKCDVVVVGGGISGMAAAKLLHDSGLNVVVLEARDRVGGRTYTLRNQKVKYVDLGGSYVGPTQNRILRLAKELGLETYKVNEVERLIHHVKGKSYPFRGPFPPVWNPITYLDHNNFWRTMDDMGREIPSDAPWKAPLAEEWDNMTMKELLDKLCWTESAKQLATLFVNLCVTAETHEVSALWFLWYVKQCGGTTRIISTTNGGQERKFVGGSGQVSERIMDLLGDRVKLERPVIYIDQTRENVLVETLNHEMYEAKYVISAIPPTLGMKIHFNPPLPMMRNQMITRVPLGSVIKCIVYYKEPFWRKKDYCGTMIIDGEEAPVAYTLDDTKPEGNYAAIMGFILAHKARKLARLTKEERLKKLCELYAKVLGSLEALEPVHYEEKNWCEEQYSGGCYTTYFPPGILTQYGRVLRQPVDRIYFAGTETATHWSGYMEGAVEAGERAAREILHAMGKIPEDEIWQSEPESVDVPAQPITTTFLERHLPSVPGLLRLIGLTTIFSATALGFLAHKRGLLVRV

BChE from equine serum [3] = molecular target: T1, BChE from equine serum; assay: Reversibility of BChE inhibition by dilution method; assay type: biochemical
BChE from equine serum [4] = molecular target: T1, BChE from equine serum; assay: Reversibility of BChE inhibition by dialysis; assay type: biochemical
AChE = conditions: cited from earlier work
[5] = inhibitor 10 µM, mean ± SE, triplicate

Compound: hyuganin C
- IC50 (BChE): 38.9 µM

Compound: COc1ccc(-c2cc(=O)c3c(O)cc(O)cc3o2)cc1 [acacetin]
- IC50 (MAO-B): 0.17 µM

Compound: CC1(C)[C@@H](O)CC[C@]2(C)[C@H]3C(=O)C=C4[C@@H]5C[C@@](C)(C(=O)O)CC[C@]5(C)CC[C@@]4(C)[C@]3(C)CC[C@@H]12 [Glycyrrhetinic acid, glycyrrhetinic acid]
- remaining activity at 10 µM (BChE from equine serum [1]): 95 ± 4.12%
- remaining activity at 10 µM [2]: 97.3 ± 1.61%
- IC50 (recombinant human MAO-A): > 40 µM
- remaining activity at 10 µM (recombinant human MAO-A; [5]): 96.3 ± 2.64%
- IC50 (recombinant human MAO-B): > 40 µM
- remaining activity at 10 µM (recombinant human MAO-B; [5]): 84 ± 2.16%

Compound: CC1(C)[C@@H](O[C@H]2O[C@H](C(=O)O)[C@@H](O)[C@H](O)[C@H]2O[C@@H]2O[C@H](C(=O)O)[C@@H](O)[C@H](O)[C@H]2O)CC[C@]2(C)[C@H]3C(=O)C=C4[C@@H]5C[C@@](C)(C(=O)O)CC[C@]5(C)CC[C@@]4(C)[C@]3(C)CC[C@@H]12 [Glycyrrhizin, glycyrrhizin]
- remaining activity at 10 µM (BChE from equine serum [1]): 82.3 ± 7.95%
- remaining activity at 10 µM [2]: 97.7 ± 2.14%
- IC50 (recombinant human MAO-A): > 40 µM
- remaining activity at 10 µM (recombinant human MAO-A; [5]): 95.8 ± 3.3%
- IC50 (recombinant human MAO-B): > 40 µM
- remaining activity at 10 µM (recombinant human MAO-B; [5]): 93.1 ± 4.32%

Compound: isoliquiritin apioside
- Residual Activity at 10 µM (%) BChE (BChE from equine serum [1]; [5]): 95.6 ± 0.88%
- Residual Activity at 10 µM (%) AChE [2, 5]: 93.5 ± 3.07%
- Residual Activity at 10 µM (%) MAO-A (recombinant human MAO-A; [5]): 86.6 ± 3.27%
- Residual Activity at 10 µM (%) MAO-B (recombinant human MAO-B; [5]): 80.3 ± 5.57%

Compound: COc1cc2c(cc1O)C[C@H]1c3c(cc(O)c(OC)c3-2)CCN1C [boldine]
- IC50 (BChE): 321 µM

Compound: Cc1cc2c(cc(=O)c1O)[C@@]1(CO)CCCC(C)(C)[C@@H]1CC2 [isograndifoliol]
- IC50 (BChE): 0.9 µM

Compound: COc1c(CC=C(C)C)c(O)cc2oc(=O)c3c4ccc(O)cc4oc3c12 [GC, glycyrol]
- residual BChE activity, preincubated at 50 × IC50 then diluted to 1 × IC50 (BChE from equine serum [3]; 15 min preincubation, after dilution): 40.1%
- residual BChE activity, control at 1 × IC50 (before dilution) (BChE from equine serum [3]; GC at 1 × IC50): 51.1%
- residual BChE activity at 50 × IC50 (BChE from equine serum [3]; GC at 50 × IC50): 10.3%
- Residual BChE activity, undialyzed (AU) (BChE from equine serum [4]; 2 × IC50 (GC […]; tacrine 0.03 µM), 30 min preincubation): 34.6%
- Residual BChE activity, dialyzed (AD) (BChE from equine serum [4]; 2 × IC50 (GC […]; tacrine 0.03 µM), 6 h dialysis): 58.4%
- reversibility of BChE inhibition (BChE from equine serum [4]; dialysis and dilution methods): reversible inhibitor
- IC50 (BChE from equine serum [1]): 7.22 ± 0.37 µM
- Ki (BChE from equine serum [1]): 4.47 µM
- selectivity index (SI) for BChE with respect to AChE (BChE from equine serum [1]): 2.0
- mode of BChE inhibition (BChE from equine serum [1]; Lineweaver-Burk plots): reversible, noncompetitive inhibitor
- remaining activity at 10 µM (BChE from equine serum [1]): 44.6 ± 5.36%
- IC50 [2]: 14.8 ± 0.19 µM
- remaining activity at 10 µM [2]: 46.1 ± 4.4%
- IC50 (recombinant human MAO-A): > 40 µM
- remaining activity at 10 µM (recombinant human MAO-A): 70.5 ± 1.61%
- IC50 (recombinant human MAO-B): 29.5 ± 0.67 µM
- remaining activity at 10 µM (recombinant human MAO-B): 74.2 ± 3.46%

Compound: O=C(/C=C/c1ccc(O[C@@H]2O[C@H](CO)[C@@H](O)[C@H](O)[C@H]2O)cc1)c1ccc(O)cc1O [Isoliquiritin, isoliquiritin]
- IC50 (BChE from equine serum [1]): > 40 µM
- remaining activity at 10 µM (BChE from equine serum [1]): 91.9 ± 7.16%
- IC50 [2]: > 40 µM
- remaining activity at 10 µM [2]: 69.9 ± 2.2%
- IC50 (recombinant human MAO-A): > 40 µM
- remaining activity at 10 µM (recombinant human MAO-A): 81.8 ± 1.61%
- IC50 (recombinant human MAO-B): > 40 µM
- remaining activity at 10 µM (recombinant human MAO-B): 75.4 ± 2.27%

Compound: COc1cc2ccc(=O)oc2c2ccoc12 [sphondin]
- BChE inhibition (BChE; 25 μg/mL (sphondin 115.7 μM, pimpinellin 101.5 μM), from Heracleum platytaenium): 63.69%

Compound: tannic acid
- IC50 (AChE): 0.087 µM

Compound: COc1ccc(CCCc2ccc(O)cc2)c(O)c1 [broussonin A]
- IC50 (BChE): 7.5 µM

Compound: O=C1C[C@@H](c2ccc(O[C@@H]3O[C@H](CO)[C@@H](O)[C@H](O)[C@H]3O)cc2)Oc2cc(O)ccc21 [Liquiritin, liquiritin]
- IC50 (BChE from equine serum [1]): > 40 µM
- remaining activity at 10 µM (BChE from equine serum [1]): 95.5 ± 4.67%
- IC50 [2]: > 40 µM
- remaining activity at 10 µM [2]: 93.5 ± 5.12%
- IC50 (recombinant human MAO-A): > 40 µM
- remaining activity at 10 µM (recombinant human MAO-A): 93.5%
- IC50 (recombinant human MAO-B): > 40 µM
- remaining activity at 10 µM (recombinant human MAO-B): 90.2 ± 0.56%
